From US4738929A, “Purified culture of streptomyces galanosa” (Warner-Lambert Company, priority 1986, dated 1988)
In brackets after ≈: the same amount, converted by molar mass.

Key:
[1] = test system: Escherichia coli (PD-04863); assay: Microtiter dilution MIC, Escherichia coli (PD-04863); assay type: cell-based; details: Mueller-Hinton broth, 37° C., 16-24 hours, read-out: Minimal Inhibitory Concentration
Method: (§1) The compounds of the present invention and their pharmaceutically acceptable salts are useful as antimicrobial agents. The antimicrobial activity of the representative examples of compounds in accordance with the present invention against five species of gram-negative bacteria, seven species of gram-positive bacteria, four species of yeast, and two species of fungi were determined using the microtiter dilution technique. This method is described by T. B. Conrath, "Handbook of Microtiter Procedures," Dynatech Corp., Cambridge, Mass., USA (1972); and T. L. Gavan et al, "Microdilution Test Procedures," in Manual of Clinical Microbiology, E. H. Lennette, Ed., American Soc. for Microbiol., Washington, D.C., U.S.A. (1980).
(§2) Each agent is suspended in a nonaqueous solvent for several minutes to sterilize the compound or, if the compound is completely soluble in water, the aqueous solution is sterilized by passage through a 0.2-0.45 micrometer membrane filter.
(§3) Each well of a sterile 96-well microdilution tray is filled under aseptic conditions with 0.1 ml of Mueller-Hinton broth (for antibacterial tests), or yeast extract-peptone-dextrose or buffered supplemented yeast nitrogen base (for tests with yeasts or fungi).
(§4) […] of the test compound solution is added to each of the eight wells in the first row of the tray. A microdilutor apparatus is used to simultaneously mix the contents of these wells and to transfer aliquots to each succeeding row of cells to obtain a range of serially diluted solutions. The last row of wells is untreated and serves as a control.
(§5) Each well containing broth and test compound is inoculated with about ten microliters of inoculum of the test microorganism. One well in the last row of wells (which is free of test compound) is not inoculated and is used as a sterility control The trays are sealed and incubated at 37° C. for 16-24 hours (for bacteria) or at 28° C. for 36-48 hours (yeasts or fungi). During incubation, the inoculated medium is shaken at 100-140 rpm to increase contact between the microorganism cells and test compounds.
(§6) After the incubation period, each plate is evaluated by determining the lowest concentration of test compound required to inhibit the growth of the microorganism and recorded as a minimal inhibitory concentration (MIC).

[2] = test system: Saccharomyces cerevisiae; assay: Microtiter dilution MIC, Saccharomyces cerevisiae; assay type: cell-based; details: yeasts or fungi, 28° C., 36-48 hours, read-out: Minimal Inhibitory Concentration
Method: as §1, §2, §3, §4, §5, §6

[3] = test system: Micrococcus luteus; assay: Microtiter dilution MIC, Micrococcus luteus; assay type: cell-based; details: Mueller-Hinton broth, 37° C., 16-24 hours, read-out: Minimal Inhibitory Concentration
Method: as §1, §2, §3, §4, §5, §6

[4] = test system: P388 leukemia cell line; assay: In vivo antineoplastic activity against transplanted P388 leukemia in mice; details: Days 1-9
Method: The in vivo antineoplastic activity of representative compounds of the present invention against the transplanted P388 leukemia cell line in mice was determined in accordance with the protocol given in Geran et al, cited above. The mice were infected intraperitoneally on Day 0 and then administered the indicated doses of the test compounds on Days 1-9.

[5] = test system: Rhodotorula aurantiaca; assay: Microtiter dilution MIC, Rhodotorula aurantiaca; assay type: cell-based; details: Buckleyzyma aurantiaca; yeasts or fungi, 28° C., 36-48 hours; read-out: Minimal Inhibitory Concentration
Method: as §1, §2, §3, §4, §5, §6

[6] = test system: Bacillus cereus; assay: Microtiter dilution MIC, Bacillus cereus; assay type: cell-based; details: Mueller-Hinton broth, 37° C., 16-24 hours, read-out: Minimal Inhibitory Concentration
Method: as §1, §2, §3, §4, §5, §6

[7] = test system: Rhizopus japonicus; assay: Microtiter dilution MIC, Rhizopus japonicus; assay type: cell-based; details: yeasts or fungi, 28° C., 36-48 hours, read-out: Minimal Inhibitory Concentration
Method: as §1, §2, §3, §4, §5, §6

[8] = test system: Schizosaccharomyces pombe; assay: Microtiter dilution MIC, Schizosaccharomyces pombe; assay type: cell-based; details: yeasts or fungi, 28° C., 36-48 hours, read-out: Minimal Inhibitory Concentration
Method: as §1, §2, §3, §4, §5, §6

[9] = test system: Mucor paraciticus; assay: Microtiter dilution MIC, Mucor paraciticus; assay type: cell-based; details: yeasts or fungi, 28° C., 36-48 hours, read-out: Minimal Inhibitory Concentration
Method: as §1, §2, §3, §4, §5, §6

[10] = test system: Streptococcus pneumoniae; assay: Microtiter dilution MIC, Streptococcus pneumoniae; assay type: cell-based; details: Mueller-Hinton broth, 37° C., 16-24 hours, read-out: Minimal Inhibitory Concentration
Method: as §1, §2, §3, §4, §5, §6

[11] = test system: Alcaligenes viscolactis; assay: Microtiter dilution MIC, Alcaligenes viscolactis; assay type: cell-based; details: Mueller-Hinton broth, 37° C., 16-24 hours, read-out: Minimal Inhibitory Concentration
Method: as §1, §2, §3, §4, §5, §6

[12] = test system: Streptococcus pyogenes; assay: Microtiter dilution MIC, Streptococcus pyogenes; assay type: cell-based; details: Mueller-Hinton broth, 37° C., 16-24 hours, read-out: Minimal Inhibitory Concentration
Method: as §1, §2, §3, §4, §5, §6

[13] = test system: Salmonella typhimurium; assay: Microtiter dilution MIC, Salmonella typhimurium; assay type: cell-based; details: Salmonella enterica, Mueller-Hinton broth, 37° C., 16-24 hours, read-out: Minimal Inhibitory Concentration
Method: as §1, §2, §3, §4, §5, §6

[14] = test system: Pseudomonas aeruginosa; assay: Microtiter dilution MIC, Pseudomonas aeruginosa; assay type: cell-based; details: Mueller-Hinton broth, 37° C., 16-24 hours, read-out: Minimal Inhibitory Concentration
Method: as §1, §2, §3, §4, §5, §6

[15] = test system: Torulopsis albida; assay: Microtiter dilution MIC, Torulopsis albida; assay type: cell-based; details: Naganishia albida; yeasts or fungi, 28° C., 36-48 hours; read-out: Minimal Inhibitory Concentration
Method: as §1, §2, §3, §4, §5, §6

[16] = test system: L1210 murine leukemia cell line; assay: Cytotoxic activity against L1210 murine leukemia in vitro; assay type: cell-based; details: Mus musculus, 50% inhibition of growth, duplicate tests
Method: The antineoplastic activities of representative compounds of the present invention against the L1210 murine leukemia cell line in vitro were determined using the methods detailed by R. I. Geran et al, "Protocols for Screening Chemical Agents and Natural Products Against Animal Tumors and Other Biological Systems," 3rd Edition, Cancer Chemotherapy Reports, Part 3, Vol. 3, pages 1-87 (1972) which is incorporated herein by reference.
The IC50 values are the concentration of compound required to produce 50% inhibition of growth of the cell line.

[17] = test system: Branhamella catarrhalis; assay: Microtiter dilution MIC, Branhamella catarrhalis; assay type: cell-based; details: Moraxella catarrhalis; Mueller-Hinton broth, 37° C., 16-24 hours; read-out: Minimal Inhibitory Concentration
Method: as §1, §2, §3, §4, §5, §6

[18] = test system: Streptococcus faecalis; assay: Microtiter dilution MIC, Streptococcus faecalis; assay type: cell-based; details: Enterococcus faecalis; Mueller-Hinton broth, 37° C., 16-24 hours; read-out: Minimal Inhibitory Concentration
Method: as §1, §2, §3, §4, §5, §6

[19] = test system: Staphylococcus aureus; assay: Microtiter dilution MIC, Staphylococcus aureus; assay type: cell-based; details: Mueller-Hinton broth, 37° C., 16-24 hours, read-out: Minimal Inhibitory Concentration
Method: as §1, §2, §3, §4, §5, §6

[20] = test system: Bacillus megaterium; assay: Microtiter dilution MIC, Bacillus megaterium; assay type: cell-based; details: Priestia megaterium; Mueller-Hinton broth, 37° C., 16-24 hours; read-out: Minimal Inhibitory Concentration
Method: as §1, §2, §3, §4, §5, §6

Cc1c(O)c(C=O)c2nc3c(O)ccc(C(=O)NCCCN(C)C)c3nc2c1O [Example 18, N-[3-(dimethylamino)propyl]-6-formyl-4,7,9-trihydroxy-8-methyl-1-phenazinecarboxamide]
MIC [1]: 37 µg/mL (≈ 92.9 µM) | MIC [2]: 111 µg/mL (≈ 279 µM) | MIC [3]: 12.3 µg/mL (≈ 30.9 µM) | % T/C ([4]; 25 mg/kg/injection): 106% | % T/C ([4]; 50 mg/kg/injection): 123% | % T/C ([4]; 100 mg/kg/injection): 132% | MIC [5]: 37 µg/mL (≈ 92.9 µM) | MIC [6]: 12.3 µg/mL (≈ 30.9 µM) | MIC [7]: 37 µg/mL (≈ 92.9 µM) | MIC [8]: 37 µg/mL (≈ 92.9 µM) | MIC [9]: 37 µg/mL (≈ 92.9 µM) | MIC [10]: 37 µg/mL (≈ 92.9 µM) | MIC [11]: 12.3 µg/mL (≈ 30.9 µM) | MIC [12]: 37 µg/mL (≈ 92.9 µM) | MIC [13]: 111 µg/mL (≈ 279 µM) | MIC [14]: > 1000 µg/mL | MIC [15]: 37 µg/mL (≈ 92.9 µM) | IC50 [16]: 0.24 µg/mL (≈ 0.602 µM) | MIC [17]: 12.3 µg/mL (≈ 30.9 µM) | MIC [18]: 37 µg/mL (≈ 92.9 µM) | MIC [19]: 37 µg/mL (≈ 92.9 µM) | MIC [20]: 37 µg/mL (≈ 92.9 µM)
